“And” between values parts separate entries of the source, which are not always exact repeats. Equal entries are not always repeated. Where two headings read alike, the source gives them in different places.

The text below walks through data of PMC10616419 (The Journal of Biological Chemistry, 2023).

Test [1] addresses T1, YYAA concatemer rat TRPV1 (two Y511A mutant subunits) (Rattus norvegicus, UniProt O35433, Y511A).
T1 construct: expressed in transfected cells; host or cells: TSA201 (HEK293T) cells, transient transfection; excised inside-out patches
It counts as cell-based.

Test [2] concerns the target T2, Y511A mutant subunit of rat TRPV1 (YYYA and YYAA concatemers) (Rattus norvegicus, UniProt O35433, Y511A).
T2 construct: expressed in transfected cells; host or cells: TSA201 (HEK293T) cells, transient transfection
It counts as cell-based.

For test [3], the system named is TRPV1. Type of test: cell-based.
Test [4] concerns the target T3, YYYA concatemer rat TRPV1 (single Y511A mutant binding site) (Rattus norvegicus, UniProt O35433, Y511A).
T3 construct: expressed in transfected cells; host or cells: TSA201 (HEK293T) cells, transient transfection; excised inside-out patches
Particulars: cited from earlier work.

The target in test [5] is TRPV1 (Rattus norvegicus, UniProt O35433). As to conditions: cited from earlier work.
TRPV1 (Rattus norvegicus, UniProt O35433), sequence (O35433 whole entry): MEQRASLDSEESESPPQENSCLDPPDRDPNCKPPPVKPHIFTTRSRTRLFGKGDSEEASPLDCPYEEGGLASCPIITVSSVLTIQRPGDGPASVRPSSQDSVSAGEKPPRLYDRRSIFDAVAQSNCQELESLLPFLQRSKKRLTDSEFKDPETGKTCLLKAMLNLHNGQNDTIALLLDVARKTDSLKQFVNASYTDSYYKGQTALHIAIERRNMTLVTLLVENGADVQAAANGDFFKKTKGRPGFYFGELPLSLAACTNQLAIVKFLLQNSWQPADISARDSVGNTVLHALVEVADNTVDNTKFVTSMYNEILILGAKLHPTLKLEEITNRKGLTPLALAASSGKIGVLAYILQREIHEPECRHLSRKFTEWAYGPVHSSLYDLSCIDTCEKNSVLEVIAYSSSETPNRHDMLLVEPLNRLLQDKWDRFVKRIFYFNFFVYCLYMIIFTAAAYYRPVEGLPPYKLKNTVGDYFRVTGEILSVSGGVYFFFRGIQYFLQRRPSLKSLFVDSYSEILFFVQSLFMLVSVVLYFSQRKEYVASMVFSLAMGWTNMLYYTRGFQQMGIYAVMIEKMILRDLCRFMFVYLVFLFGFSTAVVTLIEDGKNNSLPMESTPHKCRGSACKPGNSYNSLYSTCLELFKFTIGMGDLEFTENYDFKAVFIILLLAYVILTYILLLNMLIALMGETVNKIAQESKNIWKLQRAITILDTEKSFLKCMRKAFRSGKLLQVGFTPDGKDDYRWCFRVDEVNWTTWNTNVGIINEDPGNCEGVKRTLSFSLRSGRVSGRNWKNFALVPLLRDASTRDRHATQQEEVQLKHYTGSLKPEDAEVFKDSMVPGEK
Test [6] concerns the target TRPV1 (Rattus norvegicus, UniProt O35433, Y511A). As to conditions: cited from earlier work.
Test [7] deals with T3, YYYA concatemer rat TRPV1 (single Y511A mutant binding site). Type of test: cell-based.
Test [8] has as its system Y511A mutant subunit of rat TRPV1 (YYYA and YYAA concatemers). Type of test: cell-based.
Test [9] concerns the target T4, wildtype (Y) subunit of rat TRPV1 concatemers (Rattus norvegicus, UniProt O35433).
T4 construct: expressed in transfected cells; host or cells: TSA201 (HEK293T) cells, transient transfection
It counts as cell-based.

For test [10], the target named is T5, Y511A (A) mutant subunit of rat TRPV1 concatemers (Rattus norvegicus, UniProt O35433, Y511A).
T5 construct: expressed in transfected cells; host or cells: TSA201 (HEK293T) cells, transient transfection
T5 sequence (O35433 whole entry Y511A): as the sequence (O35433 whole entry) above, with Y511A counted along it
It counts as cell-based.

For test [11], the target named is T6, wildtype mouse TRPV1 (Mus musculus, UniProt Q704Y3).
T6 construct: expressed in transfected cells; host or cells: TSA201 (HEK293T) cells, transient transfection
T6 sequence (Q704Y3 whole entry): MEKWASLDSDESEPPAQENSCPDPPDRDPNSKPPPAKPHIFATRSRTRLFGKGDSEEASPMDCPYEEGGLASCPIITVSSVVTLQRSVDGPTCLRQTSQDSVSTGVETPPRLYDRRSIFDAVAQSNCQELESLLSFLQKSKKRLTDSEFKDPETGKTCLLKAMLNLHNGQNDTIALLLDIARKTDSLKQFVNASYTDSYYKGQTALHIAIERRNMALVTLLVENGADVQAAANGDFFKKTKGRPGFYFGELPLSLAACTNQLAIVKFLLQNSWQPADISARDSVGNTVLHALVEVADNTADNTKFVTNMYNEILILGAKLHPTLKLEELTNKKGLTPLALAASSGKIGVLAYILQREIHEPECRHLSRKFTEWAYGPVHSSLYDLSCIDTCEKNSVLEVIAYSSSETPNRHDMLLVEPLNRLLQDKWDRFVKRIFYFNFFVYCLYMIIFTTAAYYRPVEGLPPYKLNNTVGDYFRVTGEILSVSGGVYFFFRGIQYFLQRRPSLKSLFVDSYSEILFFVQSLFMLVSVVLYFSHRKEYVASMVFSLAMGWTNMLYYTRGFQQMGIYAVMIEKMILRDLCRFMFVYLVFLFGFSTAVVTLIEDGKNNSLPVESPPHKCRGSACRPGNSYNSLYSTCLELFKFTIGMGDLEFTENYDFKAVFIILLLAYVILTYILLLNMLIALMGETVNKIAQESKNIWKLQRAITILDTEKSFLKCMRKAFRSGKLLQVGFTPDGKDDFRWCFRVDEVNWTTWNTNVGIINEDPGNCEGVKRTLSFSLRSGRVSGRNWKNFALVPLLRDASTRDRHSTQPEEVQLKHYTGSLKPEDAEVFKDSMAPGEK
Nature of the test: cell-based. It counts as cell-based.

For test [12], the target named is T7, Y512A mutant mouse TRPV1 (Mus musculus, UniProt Q704Y3, Y512A).
T7 construct: expressed in transfected cells; host or cells: TSA201 (HEK293T) cells, transient transfection
T7 sequence (Q704Y3 whole entry Y512A): as the sequence (Q704Y3 whole entry) above, with Y512A counted along it
Nature of the test: cell-based. It counts as cell-based.

Test [13] deals with T7, Y512A mutant mouse TRPV1. As to conditions: cited from earlier work.
Test [14] has as its system TRPV1. As to conditions: cited from earlier work.

T1 sequence (O35433 whole entry, stated change not applied): as the sequence (O35433 whole entry) above
T1 sequence (O35433 whole entry, stated change not applied): as the sequence (O35433 whole entry) above
T1 sequence (O35433 whole entry Y511A): as the sequence (O35433 whole entry) above, with Y511A counted along it
T1 sequence (O35433 whole entry Y511A): as the sequence (O35433 whole entry) above, with Y511A counted along it
T3 sequence (O35433 whole entry, stated change not applied): as the sequence (O35433 whole entry) above
T3 sequence (O35433 whole entry, stated change not applied): as the sequence (O35433 whole entry) above
T3 sequence (O35433 whole entry, stated change not applied): as the sequence (O35433 whole entry) above
T3 sequence (O35433 whole entry Y511A): as the sequence (O35433 whole entry) above, with Y511A counted along it
T2 sequence (O35433 whole entry Y511A): as the sequence (O35433 whole entry) above, with Y511A counted along it
T2 sequence (O35433 whole entry partner): as the sequence (O35433 whole entry) above
T4 sequence (O35433 whole entry): as above
TRPV1 (Rattus norvegicus, UniProt O35433, Y511A), sequence (O35433 whole entry Y511A): as the sequence (O35433 whole entry) above, with Y511A counted along it

`C=C(C)[C@]12C[C@@H](C)[C@@]34O[C@](Cc5ccccc5)(O[C@@H]1[C@@H]3C=C(COC(=O)Cc1ccc(O)c(OC)c1)C[C@]1(O)C(=O)C(C)=C[C@@H]41)O2` [RTX, resiniferatoxin]: in test [1], the “L2, equilibrium constant before capsaicin” value is recorded as 0.97; the “L2, equilibrium constant before capsaicin application” value is 0.96; the “initial Po level with wildtype binding sites preloaded” value was “approximately 50%”. For the same compound, in test [2], the L is 0.96 and the “L with two prebound RTX” value is recorded as 0.94. The agonist type entry in [3] was “full agonist”. In addition, the “Po with three RTX molecules bound” value in test [4] is listed as “approximately 99%”. Besides, the binding reversibility result in [5] is “binds irreversibly”. Further, the binding reversibility entry in test [6] was “can be washed off”.

As a reminder, the Hill slope is a measure of the steepness of the concentration-response curve. Usually EC50 stands for the concentration at which the effect is half-maximal. As a reminder, the Kd is the concentration at which binding is half-saturated. A low value points to tighter binding. `COc1cc(CNC(=O)CCCC/C=C/C(C)C)ccc1O` [capsaicin] showed a Hill slope in test [7] of 0.96. Moreover, in test [1], the Hill slope came to 0.88; the “Po reached on application of capsaicin” value is given as roughly 100%; the “a factor (cooperativity between the two capsaicin binding steps; 0.25 = independent)” value came to 0.27; the cooperative factor f was 8.9 and 11.8. The cooperative factor f in test [2] was 12.1 and 8.9. In test [8], the “capsaicin association constant K” value was determined as 49000 M⁻¹ and the cooperative factor f was found to be 8.0. This compound also came in with a KY in test [9] of 2.4e+06 M⁻¹. For the same compound, the fA in [10] came out at 12.9. In test [11], a half-maximal response (EC50) required 0.11 µM, the dissociation constant (Kd) is 0.244 µM, the “activation after perfusing 6′-iRTX” value is on record as “lost its activation effect” and the “slope factor (Hill function)” value came to 1.3. Besides, in test [12], the half-maximal effective concentration (EC50) was found to be 22 µM, the Kd is 52.6 µM and the “slope factor (Hill function)” value turned out to be 2.3. For the same compound, in test [13], the EC50 is 13 µM.

As to 6′-iodo-RTX [6′-iRTX], the “channel activation with three molecules bound” value in [7] is listed as “barely activated”. In test [1], the “L2, equilibrium constant before capsaicin” value is recorded as 0.01 and the “L2, equilibrium constant before capsaicin application” value came out at 0.008. In test [2], the L stood at 0.01, the “L with three prebound 6′-iRTX” value is 0.02 and the “L with two prebound 6′-iRTX” value is listed as 0.02. In test [11], the binding reversibility entry is recorded as “binds irreversibly” and the “channel activity produced on perfusion” value was “weak channel activities”. Further, the binding reversibility result in [12] is recorded as “could be washed off”. Besides, the agonist type entry in test [3] was “weak agonist”. Also, the agonist type entry in test [14] is listed as “weak partial agonist”.

As for `NCCOB(c1ccccc1)c1ccccc1` [2-APB, 2-aminoethoxydiphenyl borate], the “activation after perfusing 6′-iRTX” value in [11] is “could still activate these channels”.
